Test results taken from patent US11788086B2, “Antitumor compounds and tumor diagnosis” (CBMED GMBH CENTER FOR BIOMARKER RESEARCH IN MEDICINE, priority 2016, dated 2023).

Key:
rectum cancer PDX models = test: Protein expression in rectum cancer PDX models under chemotherapeutic treatment; format: in vivo, mice; settings: not statistically significant
Description: (§1) Protein expression was analyzed in NP-40 tissue lysates. Therefore normalized protein amounts were loaded onto 8% or 12.5% polyacrylamide gels in consideration of the molecular mass of the protein of interest. Electrophoresis was performed for 1.5 h at 120 V in SDS Running Buffer with the Mini-vertical electrophoresis unit (Amersham Biosciences). Then separated proteins were transferred to PVDF-membranes (Immobilin-P Transfer Membran; Millipore) using a Semi Dry Blotting Unit (JH BioInnovations) at 160 mA for 1.5 hours. Membranes were blocked with 5% non-fat dried milk (AppliChem) in Tris-buffered saline-Tween (TBS-T; 0.2 M Tris, 1.4 M NaCl, pH 7.4, 0.1% Tween) for 1 h, followed by a primary antibody incubation (overnight at 4° C.) and an 1 h secondary antibody incubation (1:3000 dilution, GE Healthcare). All primary antibodies were diluted in 5% bovine serum albumin diluted in TBS-T. Between incubation steps membranes were washed 3 times in TBS-T for 10 min. Membranes were then developed with an enhanced chemiluminescence (ECL) Western blotting system (GE healthcare) using the ChemiImager™ System (Alpha Innotech). Immunoblots were evaluated semi-quantitative using ImageJ (Schneider C A, et al. Nat Meth. 9(2012):671-5) software for densitometric analyses. Relative densities were then calculated by normalizing density values for each protein to the loading control (Actin).
(§2) Samples of patients suffering from colon cancer or GBMs were transplanted into 3 to 6 immunodeficient NOD/SCID mice. The tumor growth was monitored in a daily rhythm. At a size of about 1 cm^3, the tumors were removed and transferred to naive NMRI:nu/nu mice for chemosensitivity testing. Xenotransplanted carcinomas and metastases were treated with different standard and novel chemotherapeutic drugs. During chemosensitivity testing the tumor volume was measured regularly and used to generate growth curves. After a time period of 30-40 days the tumors were excised and analyzed by Immunoblot and Real-Time-PCR. Chemosensitivity data were kindly provided by EPO Berlin-Buch GmbH. Tumor volume of treatment in comparison to control (T/C) was calculated in percent.
To analyze protein expression of different eIF subunits under chemotherapeutic treatment, 4 rectum primary carcinoma (RPC) PDX models and 2 rectum metastasis (RM) PDX model were generated.

eIF protein expression = eIF protein expression after chemosensitivity testings in murine GBM xenograft models (immunoblot); format: in vivo, mice; settings: murine GBM xenografts; for eIF protein expression (eIF subunits overall): compared to PBS treated controls
Description: as §1, §2
Additionally to single treatments with each compound, combination therapies for Temozolomide/Everolimus, Temozolomide/Regorafenib and Temozolomide/Thalidomide were investigated.

tumor cells = settings: eIF5A2 siRNA combined with GC7, HCC; cited from earlier work
colon cancer PDX models = test: Protein expression in colon cancer patients derived xenograft (PDX) models under chemotherapeutic treatment; format: in vivo, mice; settings: not statistically significant
Description: Protein expression was analyzed in NP-40 tissue lysates. Therefore normalized protein amounts were loaded onto 8% or 12.5% polyacrylamide gels in consideration of the molecular mass of the protein of interest. Electrophoresis was performed for 1.5 h at 120 V in SDS Running Buffer with the Mini-vertical electrophoresis unit (Amersham Biosciences). Then separated proteins were transferred to PVDF-membranes (Immobilin-P Transfer Membran; Millipore) using a Semi Dry Blotting Unit (JH BioInnovations) at 160 mA for 1.5 hours. […] Immunoblots were evaluated semi-quantitative using ImageJ (Schneider C A, et al. Nat Meth. 9(2012):671-5) software for densitometric analyses. Relative densities were then calculated by normalizing density values for each protein to the loading control (Actin).
Samples of patients suffering from colon cancer or GBMs were transplanted into 3 to 6 immunodeficient NOD/SCID mice. The tumor growth was monitored in a daily rhythm. […] During chemosensitivity testing the tumor volume was measured regularly and used to generate growth curves. After a time period of 30-40 days the tumors were excised and analyzed by Immunoblot and Real-Time-PCR. […] Tumor volume of treatment in comparison to control (T/C) was calculated in percent.

hepatoma cell = settings: in vivo and in vitro; cited from earlier work
[1] = rectum metastasis (RM) PDX models

For `O=c1[nH]cc(F)c(=O)[nH]1` [5-FU], which eIF3A protein expression (rectum cancer PDX models; [1]) is on record?
The eIF3A protein expression was “trend in downregulation”.

With `CO[C@H]1C[C@@H]2CC[C@@H](C)[C@@](O)(O2)C(=O)C(=O)N2CCCC[C@H]2C(=O)O[C@H]([C@H](C)C[C@@H]2CC[C@@H](OCCO)[C@H](OC)C2)CC(=O)[C@H](C)/C=C(\C)[C@@H](O)[C@@H](OC)C(=O)[C@H](C)C[C@H](C)/C=C/C=C/C=C/1C` [Everolimus] as the molecule, how does the “eIF protein expression (eIF subunits overall)” value (shortened to “eIF protein expression”) (eIF protein expression) read?
Its value is “almost no difference”.

What about the eIF3C protein expression (eIF protein expression; vs PBS control) of the same molecule?
Its eIF3C protein expression is “upregulated”.

Which “migration ability of tumor cells” value (tumor cells) does the source give for `NCCCCCCCN=C(N)N` [GC7] here?
The value was “effectively reduces”.

Which results are given for `CCc1c2c(nc3ccc(OC(=O)N4CCC(N5CCCCC5)CC4)cc13)-c1cc3c(c(=O)n1C2)COC(=O)[C@]3(O)CC` [Irinotecan]?
eIF protein expression (eIF subunits overall) (eIF protein expression): differential effects; eIF3A protein expression (rectum cancer PDX models; [1]): trend in downregulation

Which eIF3A protein expression (rectum cancer PDX models; [1]) does the source give for `COC(=O)c1ccc2c(c1)NC(=O)/C2=C(\Nc1ccc(N(C)C(=O)CN2CCN(C)CC2)cc1)c1ccccc1` [Nintedanib] here?
Its eIF3A protein expression is “trend in downregulation”.

What about the eIF3J protein expression (rectum cancer PDX models; [1]) of the same molecule?
Its eIF3J protein expression is “tendency to be downregulated”.

For `O=C1[O][Pt]2([NH][C@@H]3CCCC[C@H]3[NH]2)[O]C1=O` [Oxaliplatin], which eIF4G protein expression (rectum cancer PDX models; rectum primary carcinoma (RPC) PDX) is on record?
The eIF4G protein expression was “increased”.

What about the mTOR protein expression (colon cancer PDX models; colon primary carcinoma (CPC) PDX models, vs untreated control) of the same molecule?
Its mTOR protein expression is “trend to be upregulated”.

With `CNC(=O)c1cc(Oc2ccc(NC(=O)Nc3ccc(Cl)c(C(F)(F)F)c3)c(F)c2)ccn1` [Regorafenib] as the molecule, how does the “eIF protein expression” value (eIF protein expression) read?
The value was “totally down-regulated”.

And the eIF3A protein expression (rectum cancer PDX models; [1])?
The eIF3A protein expression was “trend in downregulation”.

Which results are given for `CC[C@@H](C(=O)[C@@H](C)[C@@H](O)[C@H](C)[C@@H]1O[C@@H]([C@@H](CC)C(=O)O)CC[C@@H]1C)[C@H]1O[C@]2(C=C[C@@H](O)[C@]3(CC[C@@](C)([C@H]4CC[C@](O)(CC)[C@H](C)O4)O3)O2)[C@H](C)C[C@@H]1C` [Salinomycin]?
eIF protein expression (eIF subunits overall) (eIF protein expression): almost no difference; eIF3C protein expression (eIF protein expression; vs PBS control): upregulated

For `CNC(=O)c1cc(Oc2ccc(NC(=O)Nc3ccc(Cl)c(C(F)(F)F)c3)cc2)ccn1` [Sorafenib], which “eIF protein expression” value (eIF protein expression) is on record?
Its value is “almost no difference”.

And the eIF3C protein expression (eIF protein expression; vs PBS control)?
Its eIF3C protein expression is “upregulated”.

What about the Mcl-1 protein (hepatoma cell) of the same molecule?
Its Mcl-1 protein is “reduce”.

What about the “RAF/MEK/ERK signaling transduction pathway” value (hepatoma cell) of the same molecule?
The value was “inhibit”.

What about the eIF4E phosphorylation level (hepatoma cell) of the same molecule?
Its eIF4E phosphorylation level is “reduce”.

What about the hepatoma cell apoptosis (hepatoma cell) of the same molecule?
The hepatoma cell apoptosis was “induce”.

Which “eIF protein expression” value (eIF protein expression) does the source give for `O=C1CCC(N2C(=O)c3ccccc3C2=O)C(=O)N1` (stereo not shown) [Thalidomide] here?
The value was “almost no difference”.

What about the eIF3C protein expression (eIF protein expression; vs PBS control) of the same molecule?
Its eIF3C protein expression is “upregulated”.

For “Bevacizumab: Anti-VEGF monoclonal antibody (angiogenesis inhibitor)”, which eIF3K protein expression (eIF protein expression; vs PBS control) is on record?
Its eIF3K protein expression is “down-regulation”.

And the eIF3A protein expression (rectum cancer PDX models; [1])?
The eIF3A protein expression was “trend in downregulation”.

What about the PTEN protein expression (colon cancer PDX models; CM PDX model) of the same molecule?
Its PTEN protein expression is “seemed to be decreased”.
